Assay results published in patent publication US6277845A, “Hydrazono-benzazulene derivatives, pharmaceutical compositions and intermediates” (Aventis Pharma S.A., priority 1997, dated 2001).
pIC50: −log10 of the molar value. Counter-ions that a name gives are not always drawn.

What was measured:
[1] = molecular target: human αvβ3 receptor (Homo sapiens, UniProt P05106+P06756); assay: Bond displacement / binding competition test: Vitronectin/Vitronectin Receptor (αvβ3), plate assay; settings: human vitronectin coated plates, 3 hours at ambient temperature, read-out: Binding competition test Vn/VR (αvβ3) IC50
Method: Pharmacological Study of the Products of the Invention 1--Study by the Products of the Invention of the Bond Displacement: Vitronectin/Vitronectin Receptor (αvβ3) 96-well MaxiSorp plates are coated overnight at 4° C., with 100 μl of human Vitronectin (cf Yatohgo et al. Cell., Structure and fraction 13: 281-292 (1988)) at 2 μg/ml, (Dilution in coating buffer).
The next day, the wells are emptied and the ligands (Vitronectin) are then fixed (see fixation buffer) for 1 hour at ambient temperature under gentle agitation.
The wells are washed six times (see washing buffer), then the following are added per well and in this order:
40 μl of incubation buffer, 10 μl of the dilution of the product to be tested, (the products are diluted in a 50/50 mixture of DMSO-H2 O) 50 μl of human αvβ 3 receptor (cf Pytela et al. Methods Enzymol (1987) 144:475) (dilution in incubation buffer, adapted according to the batch of receptor and according to the ligand).
The ligand, the human αvβ3 receptor and the products to be studied are incubated for 3 hours at ambient temperature under gentle agitation.
The wells are again washed six times, then incubated for 2 hours at ambient temperature under gentle agitation, in the presence of 100 μl of 4B12-HRP antibody, anti-receptor coupled to a peroxidase (the 4B12-HRP antibody is diluted in incubation buffer. The dilution is adapted according to the batch of receptor).
The wells are then washed six times before measurement of ligand-receptor bond is carried out using a peroxidase developer kit (TMB Microwell Peroxidase Substrate System Kirkegaard: Ref. cat. 50-76-00).
This kit contains a flask A of substrate (3,3', 5,5'-tetramethylbenzidine at 0.4 g/l) and a flask B (H2 O2 at 0.02% in Citrate/Citric acid buffer). Extemporaneously, one volume of A is mixed with one volume of B, then the reaction mixture is distributed at the rate of 100 µl/well. The enzymatic reaction develops in 12' for Vitronectin/αvβ3, then its development is stopped by the addition of 100 μl of 1M phosphoric acid.
The optical density is measured at 450 nm. […]
coating buffer: 0.05 M Carbonate, NaOH pH 9.6 fixation buffer: PBS containing 0.5% of BSA (pH 7.4) washing buffer: PBS containing 0.05% of Tween 20 (pH 7.4)
The following curve is plotted: the percentage of bond of human vitronectin as a function of the logarithm of the concentration of each product tested.
For each product the IC50 is determined according to the following formula:
BO=Maximum bond in the absence of any product
Bmin=Minimum bond in the presence of the highest concentration of product.

[2] = test system: bone resorption; settings: Sato et al.; cited from earlier work
[3] = test system: bone resorption; settings: in vivo in the rat, Fisher et al.; cited from earlier work
[4] = test system: osteoclasts; settings: cited from earlier work

Compound | pIC50 [1] | inhibition of bone resorption in tissues cultured in vitro [2] | inhibition of bone resorption in vivo [3] | inhibition of the adhesion of the osteoclasts to bone [4]
COc1c(SCCC(NC(=O)OCc2ccccc2)C(=O)O)cc2c(c1OC)C1=C(CCC1)C(=NNC1=NCCN1)CC2 (racemic) [Example 1, S-[4-[(4,5-dihydro-1H-imidazol-2-yl)hydrazono]-9,10-dimethoxy-1,2,3,4,5,6-hexahydro-8-benz[e]azulenyl]-N-[(phenylmethoxy)carbonyl]-DL-homocysteine] | 7.40 | – | – | –
O=C(NC(CCSc1ccc2c(c1)CCC(=NN=C1NCCN1)C1=C2CCC1)C(=O)O)OCc1ccccc1 (racemic) [Example 4, S-[4-[(2-imidazolidinylidene)hydrazono]-1,2,3,4,5,6-hexahydro-8-benz[e]azulenyl]-N-[(phenylmethoxy)carbonyl]-DL-homocysteine] | 7.52 | – | – | –
O=C(NC(CCS(=O)(=O)c1ccc2c(c1)CCC(=NNC1=NCCN1)C1=C2CCC1)C(=O)O)OCc1ccccc1 (stereo not shown) [Example 5, hydrochloride of 4-[[4-[(2-imidazoli-dinylidene)hydrazono]-1,2,3,4,5,6-hexahydro-8-benz[e]azulenyl]sulphonyl]-2-[[(phenylmethoxy)carbonyl]amino]-butanoic acid] | 7.48 | – | – | –
O=C(NC(CC[S+]([O-])c1ccc2c(c1)CCC(=NN=C1NCCN1)C1=C2CCC1)C(=O)O)OCc1ccccc1 (stereo not shown) [Example 6, 4-[[4-[(2-imidazolidinylidene)hydrazono]-1,2,3,4,5,6-hexahydro-8-benz[e]azulenyl]sulphinyl]-2-[[(phenylmethoxy)carbonyl]amino]-butanoic acid] | 6.64 | – | – | –
Echistatin | – | powerful inhibitor of bone resorption | powerful inhibitor of bone resorption | inhibitor of the adhesion of the osteoclasts to bone
